Data from ChEMBL document CHEMBL1201862, “PubChem BioAssay data set” (2004).
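Step 1: Grow cells in 96-well plates. Step 2: Expose to compound for 48 hours at 5 concentrations. Step 3: Interpolate endpoints linearly; if unreached, use highest concentration. The concentration for 50% growth inhibition is given as GI50.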 Activity calls are given as the source filed them. No stated cut-off is given here; in the data, active = GI50 up to about 1.1 µM and inactive = higher.

Assays:
Test in all cases: NCI anticancer screen, dose series, 48 h
[1] = tested on: A549
[2] = tested on: OVCAR-4
[3] = tested on: UACC-62
[4] = tested on: SK-OV-3
[5] = tested on: MDA-MB-231
[6] = tested on: EKVX
[7] = tested on: ACHN
[8] = tested on: NCI/ADR-RES
[9] = tested on: BT-549
[10] = tested on: SK-MEL-5
[11] = tested on: K562
[12] = tested on: SF-295
[13] = tested on: RXF 393
[14] = tested on: SN12C
[15] = tested on: HL-60
[16] = tested on: T47D
[17] = tested on: A498
[18] = tested on: SR
[19] = tested on: PC-3
[20] = tested on: OVCAR-3
[21] = tested on: U-251
[22] = tested on: Malme-3M
[23] = tested on: HCC 2998
[24] = tested on: Hs-578T
[25] = tested on: MOLT-4
[26] = tested on: HOP-92
[27] = tested on: HOP-62
[28] = tested on: CCRF-CEM
[29] = tested on: SNB-75
[30] = tested on: NCI-H522
[31] = tested on: CAKI-1
[32] = tested on: NCI-H460
[33] = tested on: SNB-19
[34] = tested on: OVCAR-8
[35] = tested on: M14
[36] = tested on: OVCAR-5
[37] = tested on: NCI-H226
[38] = tested on: SF-539
[39] = tested on: LOX IMVI
[40] = tested on: SK-MEL-2
[41] = tested on: KM12
[42] = tested on: MDA-MB-435
[43] = tested on: HT-29
[44] = tested on: HCT-116
[45] = tested on: MDA-N
[46] = tested on: RPMI-8226
[47] = tested on: COLO 205
[48] = tested on: SF-268
[49] = tested on: SK-MEL-28
[50] = tested on: 786-0
[51] = tested on: IGROV-1
[52] = tested on: UACC-257
[53] = tested on: TK-10
[54] = tested on: DU-145
[55] = tested on: MCF7
[56] = tested on: UO-31
[57] = tested on: NCI-H23
[58] = tested on: HCT-15
[59] = tested on: SW-620

Measured: GI50

CC(C)/C(Cl)=N\OC(=O)Nc1ccc(C#N)cc1
10.5 µM: [58]
active: [28] 1.05 µM
inactive: [1] 20 µM | [2] 1.63 µM | [3] 17 µM | [4] 17.3 µM | [5] 14.6 µM | [6] 2.58 µM | [7] 6.95 µM | [8] 17.1 µM | [9] 13.7 µM | [10] 5.11 µM | [11] 2 µM | [12] 19 µM | [13] 1.85 µM | [14] 13.7 µM | [15] 2.56 µM | [16] 5.77 µM | [17] 14.5 µM | [18] 2.17 µM | [19] 16.5 µM | [20] 16.8 µM | [21] 18 µM | [22] 2.62 µM | [23] 16.4 µM | [24] 15.1 µM | [25] 1.92 µM | [26] 1.56 µM | [27] 17.5 µM | [29] 17.7 µM | [30] 1.75 µM | [31] 5.58 µM | [32] 17.3 µM | [33] 18.3 µM | [34] 16.7 µM | [35] 3.01 µM | [36] 15.1 µM | [37] 13.1 µM | [38] 15.9 µM | [39] 3.3 µM | [40] 11.8 µM | [41] 15.8 µM | [42] 8.04 µM | [43] 21 µM | [44] 5 µM | [45] 6.01 µM | [46] 2.56 µM | [47] 1.79 µM | [48] 19.2 µM | [49] 12.1 µM | [50] 5.12 µM | [51] 17.6 µM | [52] 12.3 µM | [53] 5.35 µM | [54] 18 µM | [55] 9.04 µM | [56] 9.02 µM | [57] 15.2 µM | [59] 1.81 µM

Cc1cc(Cl)ccc1Nc1sc(C(=O)c2cc3cc(Cl)ccc3o2)c(N)c1C#N
inactive: [1] 5.98 µM | [2] 3.59 µM | [3] 6 µM | [4] 14.7 µM | [5] 4.99 µM | [6] 17.9 µM | [7] 15.4 µM | [8] 1.82 µM | [9] > 51.9 µM | [10] 3.99 µM | [11] 18.7 µM | [12] 4.76 µM | [13] 27.7 µM | [14] 11.9 µM | [15] > 80.5 µM | [16] 16.6 µM | [17] 5.6 µM | [18] > 100 µM | [19] 6.08 µM | [20] 12.5 µM | [21] 4.14 µM | [22] 80.5 µM | [23] 3.1 µM | [24] > 100 µM | [25] > 53.3 µM | [26] 47 µM | [27] 4.86 µM | [28] > 27.1 µM | [29] 3.48 µM | [30] 3.42 µM | [31] 25.1 µM | [32] 5.96 µM | [33] 6.89 µM | [34] 11.4 µM | [35] 9.57 µM | [36] > 43.7 µM | [37] > 87.7 µM | [38] 6.53 µM | [39] > 100 µM | [40] > 44.9 µM | [41] 6.15 µM | [42] 8.71 µM | [43] 8.67 µM | [44] 18.4 µM | [45] 79.3 µM | [46] 2.27 µM | [47] > 69.8 µM | [48] 5.3 µM | [49] > 28.1 µM | [50] 3.83 µM | [51] 16.3 µM | [52] > 61.7 µM | [53] > 35.8 µM | [54] 18.8 µM | [55] 8.38 µM | [56] 34.1 µM | [57] 7.41 µM | [59] 15.2 µM
33 µM: [58]
